Test results published in US7598245B2 (Vertex Pharmaceuticals Incorporated, priority 2003, dated 2009).
Where two headings read alike, the source gives them in different places.

Columns and labels:
[1] = target: T1, FLT-3 (Homo sapiens, UniProt P36888); assay: Inhibition of FLT-3, radiometric filter-binding assay; format: biochemical; conditions: 90 μM ATP, pE4Y substrate
T1 construct: 0.02% BSA and 3 nM FLT-3
T1 sequence (P36888 27-993): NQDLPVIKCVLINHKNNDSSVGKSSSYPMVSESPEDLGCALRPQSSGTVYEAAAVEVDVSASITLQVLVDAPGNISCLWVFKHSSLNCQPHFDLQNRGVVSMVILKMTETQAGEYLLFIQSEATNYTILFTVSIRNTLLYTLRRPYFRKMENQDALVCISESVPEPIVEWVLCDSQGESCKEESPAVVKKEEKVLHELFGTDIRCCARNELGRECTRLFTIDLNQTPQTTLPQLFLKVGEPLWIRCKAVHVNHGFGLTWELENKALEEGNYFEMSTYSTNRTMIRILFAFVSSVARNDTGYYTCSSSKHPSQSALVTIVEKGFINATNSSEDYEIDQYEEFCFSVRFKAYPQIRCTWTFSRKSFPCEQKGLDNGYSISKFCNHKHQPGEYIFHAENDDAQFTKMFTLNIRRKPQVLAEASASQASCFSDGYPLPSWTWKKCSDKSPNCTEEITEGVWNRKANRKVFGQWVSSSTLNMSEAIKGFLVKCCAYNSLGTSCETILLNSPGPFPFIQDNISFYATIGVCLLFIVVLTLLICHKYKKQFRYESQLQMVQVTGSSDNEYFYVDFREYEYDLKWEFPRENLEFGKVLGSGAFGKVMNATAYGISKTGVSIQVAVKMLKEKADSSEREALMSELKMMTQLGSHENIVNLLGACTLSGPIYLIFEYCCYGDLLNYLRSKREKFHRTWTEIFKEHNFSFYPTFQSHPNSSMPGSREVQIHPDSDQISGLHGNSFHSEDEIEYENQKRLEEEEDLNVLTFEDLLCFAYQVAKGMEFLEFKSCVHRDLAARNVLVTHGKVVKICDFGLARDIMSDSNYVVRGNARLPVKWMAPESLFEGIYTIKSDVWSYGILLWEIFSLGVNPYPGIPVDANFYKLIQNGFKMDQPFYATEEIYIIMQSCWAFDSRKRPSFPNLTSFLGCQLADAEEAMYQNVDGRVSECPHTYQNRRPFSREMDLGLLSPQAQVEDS
Protocol: Compounds were screened for their ability to inhibit FLT-3 activity using a radiometric filter-binding assay. This assay monitors the ^33P incorporation into a substrate poly(Glu, Tyr) 4:1 (pE4Y). Reactions were carried out in a solution containing 100 mM HEPES (pH 7.5), 10 mM MgCl2, 25 mM NaCl, 1 mM DTT, 0.01% BSA and 2.5% DMSO. Final substrate concentrations in the assay were 90 μM ATP and 0.5 mg/mL pE4Y (both from Sigma Chemicals, St Louis, Mo.). The final concentration of compounds is generally between 0.01 and 5 μM. Typically, a 12-point titration was conducted by preparing serial dilutions from 10 mM DMSO stock of test compound. Reactions were carried out at room temperature.
Two assay solutions were prepared. Solution 1 contains 100 mM HEPES (pH 7.5), 10 mM MgCl2, 25 mM NaCl, 1 mg/ml pE4Y and 180 μM ATP (containing 0.3 μCi of [γ-^33P]ATP for each reaction). Solution 2 contains 100 mM HEPES (pH 7.5), 10 mM MgCl2, 25 mM NaCl, 2 mM DTT, 0.02% BSA and 3 nM FLT-3. The assay was run on a 96 well plate by mixing 50 μL each of Solution1 and 2.5 mL of the test compounds. The reaction was initiated with Solution2. After incubation for 20 minutes at room temperature, the reaction was stopped with 50 μL of 20% TCA containing 0.4 mM of ATP. All of the reaction volume was then transferred to a filter plate and washed with 5% TCA by a Harvester9600 from TOMTEC (Hamden, Conn.). The amount of ^33P incorporation into pE4y was analyzed by a Packard TopCount Microplate Scintillation Counter (Meriden, Conn.). The data was fitted using Prism software to get an IC50 or Ki.

[2] = target: GSK-3β (AA 1-420) (Homo sapiens, UniProt P49841); assay: Inhibition of GSK-3, coupled enzyme system; format: biochemical; conditions: 20 μM ATP, 30° C.
Chain of GSK-3β (AA 1-420) (P49841 whole entry, the tested form may be a part): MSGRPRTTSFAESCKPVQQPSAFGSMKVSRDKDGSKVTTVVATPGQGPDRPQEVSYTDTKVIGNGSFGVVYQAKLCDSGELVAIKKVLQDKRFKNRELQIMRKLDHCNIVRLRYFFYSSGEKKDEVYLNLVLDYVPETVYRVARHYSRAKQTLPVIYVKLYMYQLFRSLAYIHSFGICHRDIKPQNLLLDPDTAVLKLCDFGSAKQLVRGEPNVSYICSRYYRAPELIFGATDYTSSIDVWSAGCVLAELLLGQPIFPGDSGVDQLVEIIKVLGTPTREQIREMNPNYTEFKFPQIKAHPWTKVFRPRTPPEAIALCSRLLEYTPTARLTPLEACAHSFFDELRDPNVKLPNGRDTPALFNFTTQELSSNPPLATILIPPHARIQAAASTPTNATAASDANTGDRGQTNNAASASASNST
Protocol: Compounds are screened for their ability to inhibit GSK-3β (AA 1-420) activity using a standard coupled enzyme system [Fox et al. Protein Sci. 1998, 7, 2249]. Reactions are carried out in a solution containing 100 mM HEPES (pH 7.5), 10 mM MgCl2, 25 mM NaCl, 300 μM NADH, 1 mM DTT and 1.5% DMSO. Final substrate concentrations in the assay are 20 μM ATP (Sigma Chemicals, St Louis, Mo.) and 300 μM peptide (American Peptide, Sunnyvale, Calif.). Reactions are carried out at 30° C. and 20 nM GSK-3β. Final concentrations of the components of the coupled enzyme system are 2.5 mM phosphoenolpyruvate, 300 μM NADH, 30 μg/ml pyruvate kinase and 10 μg/ml lactate dehydrogenase.
An assay stock buffer solution is prepared containing all of the reagents listed above with the exception of ATP and the test compound of interest. The assay stock buffer solution (175 μl) is incubated in a 96 well plate with 5 μl of the test compound of interest at final concentrations spanning 0.002 μM to 30 μM at 30° C. for 10 min. Typically, a 12 point titration is conducted by preparing serial dilutions (from 10 mM compound stocks) with DMSO of the test compounds in daughter plates. The reaction is initiated by the addition of 20 μl of ATP (final concentration 20 μM). Rates of reaction are obtained using a Molecular Devices Spectramax plate reader (Sunnyvale, Calif.) over 10 min at 30° C. The Ki values are determined from the rate data as a function of inhibitor concentration.

[3] = given as IC50 or Ki, read-out: IC50 or Ki values (FLT-3)

Structure (SMILES) | Ki [1, 3] [nM] | Ki ([1]; read-out: Ki values (FLT-3)) [nM] | Ki [2] [nM]
COc1cc(Nc2ncn(-c3ccccc3)n2)cc(OC)c1OC [Compound I-42] | < 100 | 1 to 30 | > 1000
c1ccc(-n2cnc(Nc3ccc4c(c3)OCCO4)n2)cc1 [Compound I-44] | < 100 | 1 to 30 | > 1000
CCOc1cccc(Nc2ncn(-c3ccccc3)n2)c1 [Compound I-45] | < 100 | 1 to 30 | > 1000
CC(C)Oc1cccc(Nc2ncn(-c3ccccc3)n2)c1 [Compound I-46] | < 100 | 1 to 30 | > 1000
CCOc1ccc(Nc2ncn(-c3ccccc3)n2)cc1 [Compound I-47] | < 100 | 30 to 200 | > 1000
CN(C)CCCN(C)c1cc(-n2cnc(Nc3ccccc3)n2)ccn1 [Compound I-53] |  |  | > 1000
CN(Cc1ccccc1)c1cc(-n2cnc(Nc3ccccc3)n2)ccn1 [Compound I-55] |  | 1 to 30 | > 1000
CCN(CC)CCNc1cc(-n2cnc(Nc3ccccc3)n2)ccn1 [Compound I-60] |  | 30 to 200 | > 1000
CN1C(C)(C)CC(Nc2cc(-n3cnc(Nc4ccccc4)n3)ccn2)CC1(C)C [Compound I-61] |  |  | > 1000
O=c1[nH]c2ccccc2n1C1CCN(c2cc(-n3cnc(Nc4ccccc4)n3)ccn2)CC1 [Compound I-63] |  | > 200 | > 1000
O=C(C1CCCO1)N1CCN(c2cc(-n3cnc(Nc4ccccc4)n3)ccn2)CC1 (centres unmarked) [Compound I-64] |  | > 200 | > 1000
CC(=O)N1CCCN(c2cc(-n3cnc(Nc4ccccc4)n3)ccn2)CC1 [Compound I-66] |  | < 60 | > 1000
CCC(=O)N1CCCN(c2cc(-n3cnc(Nc4ccccc4)n3)ccn2)CC1 [Compound I-67] |  | 30 to 200 | > 1000
CCCC(=O)N1CCCN(c2cc(-n3cnc(Nc4ccccc4)n3)ccn2)CC1 [Compound I-68] |  | 30 to 200 | > 1000
CC(C)C(=O)N1CCCN(c2cc(-n3cnc(Nc4ccccc4)n3)ccn2)CC1 [Compound I-69] |  | 30 to 200 | > 1000
CC(C)CC(=O)N1CCCN(c2cc(-n3cnc(Nc4ccccc4)n3)ccn2)CC1 [Compound I-70] |  |  | > 1000
COCC(=O)N1CCCN(c2cc(-n3cnc(Nc4ccccc4)n3)ccn2)CC1 [Compound I-71] |  | 30 to 200 | > 1000
N#CCC(=O)N1CCCN(c2cc(-n3cnc(Nc4ccccc4)n3)ccn2)CC1 [Compound I-72] |  | < 60 | > 1000
c1ccc(Nc2ncn(-c3ccnc(N4CCCCCC4)c3)n2)cc1 [Compound I-73] |  | < 60 | 500 to 1000
CC(=O)N1[C@H](C)CN(c2cc(-n3cnc(Nc4ccccc4)n3)ccn2)C[C@@H]1C [Compound I-74] |  | < 60 | > 1000
CCOC(=O)c1ccc(Nc2ncn(-c3ccnc(N4C[C@@H](C)N(C(C)=O)[C@@H](C)C4)c3)n2)cc1 [Compound I-75] |  | 30 to 200 | > 1000
CCOC(=O)c1ccc(Nc2ncn(-c3ccnc(N4CCCN(C(C)=O)CC4)c3)n2)cc1 [Compound I-76] |  | 30 to 200 | > 1000
CC(=O)N1[C@H](C)CN(c2cc(-n3cnc(Nc4ccc(NC(=O)N(C)C)cc4)n3)ccn2)C[C@@H]1C [Compound I-77, 3-(4-{1-[2-(4-Acetyl-3,5-dimethyl-piperazin-1-yl)-pyridin-4-yl]-1H-[1,2,4]triazol-3-ylamino}-phenyl)-1,1-dimethyl-urea] |  | < 60 | > 1000
COC(=O)Nc1ccc(Nc2ncn(-c3ccnc(N4C[C@@H](C)N(C(C)=O)[C@@H](C)C4)c3)n2)cc1 [Compound I-78] |  | < 60 | > 1000
CC(=O)N1[C@H](C)CN(c2cc(-n3cnc(Nc4ccc(NC(=O)C(F)(F)F)cc4)n3)ccn2)C[C@@H]1C [Compound I-79] |  | < 60 | > 1000
CC(=O)N1[C@H](C)CN(c2cc(-n3cnc(Nc4ccc(NC(=O)c5cccs5)cc4)n3)ccn2)C[C@@H]1C [Compound I-80] |  | < 60 | > 1000

Now from value to molecule:

Ki [1, 3] [nM] | Ki ([1]; read-out: Ki values (FLT-3)) [nM] | Ki [2] [nM] | Structure (SMILES)
< 100 | 1 to 30 | 500 to 1000 | COc1cc(Nc2ncn(-c3ccc(C#N)cc3)n2)cc(OC)c1OC [Compound I-43]
 | < 60 | 500 to 1000 | c1ccc(Nc2ncn(-c3ccnc(N4CCCCC4)c3)n2)cc1 [Compound I-49, phenyl-[1-(3,4,5,6-tetrahydro-2H-[1,2′]bipyridinyl-4′-yl)-1H-[1,2,4]triazol-3-yl]-amine]
 | 1 to 30 | 500 to 1000 | c1ccc(Nc2ncn(-c3ccnc(NC4CCCCC4)c3)n2)cc1 [Compound I-50]
 | < 60 | < 500 | CN(CCO)c1cc(-n2cnc(Nc3ccccc3)n2)ccn1 [Compound I-51]
 |  | 500 to 1000 | c1ccc(Nc2ncn(-c3ccnc(N4CCCCCCC4)c3)n2)cc1 [Compound I-52]
 |  | < 500 | CCN(CCO)c1cc(-n2cnc(Nc3ccccc3)n2)ccn1 [Compound I-54]
 | 1 to 30 | < 500 | CC1CCCN1c1cc(-n2cnc(Nc3ccccc3)n2)ccn1 (centres unmarked) [Compound I-56]
 | 1 to 30 | < 500 | CN(Cc1cccnc1)c1cc(-n2cnc(Nc3ccccc3)n2)ccn1 [Compound I-57]
 | 1 to 30 | < 500 | CCCN(CCO)c1cc(-n2cnc(Nc3ccccc3)n2)ccn1 [Compound I-58]
 | 1 to 30 | < 500 | COCCN(C)c1cc(-n2cnc(Nc3ccccc3)n2)ccn1 [Compound I-59, (2-methoxy-ethyl)-methyl-[4-(3-phenylamino-[1,2,4]triazol-1-yl)-pyridin-2-yl]-amine]
 | 1 to 30 | < 500 | CC(C)CCN(C)c1cc(-n2cnc(Nc3ccccc3)n2)ccn1 [Compound I-62, methyl-(3-methyl-butyl)-[4-(3-phenylamino-[1,2,4]triazol-1-yl)-pyridin-2-yl]-amine]
 |  | 500 to 1000 | OC[C@H]1CCCN(c2cc(-n3cnc(Nc4ccccc4)n3)ccn2)C1 [Compound I-65]
 |  | < 500 | O=C(Nc1cc(-n2cnc(Nc3ccccc3)n2)ccn1)C1CCCCC1 [Compound I-93]
